Measurements reported in US4757153A, “Sulfide, sulfinyl and sulfone dipeptide amides” (G. D. Searle & Co., priority 1986, dated 1988).

Legend:
[1] = target: opiate receptors isolated from rat brain; test: Opiate Binding Assay (displacement of 3H-Naloxone); settings: concentration inhibiting specific binding of 1 nM 3H-Naloxone to rat brain receptor membranes by 50%
Procedure: Opiate Binding Assay. The test compounds were evaluated for their ability to displace the binding of ^3 H-Naloxone to opiate receptors isolated from rat brain. Male rats [Crl: CD(SD)BR] obtained from Charles River Laboratories (Portage, MI) were sacrificed by cervical dislocation. A purified homogenate of receptor membranes was prepared from the brains according to the method described by Chang and Cuatrecasas. (K.-J. Chang and P. Cuatrecasas. Multiple Opiate Receptors: Enkephalins And Morphine Bind To Receptors Of Different Specificity. J. Biol. Chem. 254, 2610-2618 (1979).) The brains were homogenized in 10 volumes of 0.32M sucrose and centrifuged twice at 6,000xg for 15 minutes. Following centrifugation of the supernatants at 40,000xg for 30 minutes, the pellets were resuspended in 5 mM tris-HCl, and centrifuged at 6,000. The supernatant was centrifuged at 40,000xg. The resuspension in 5 mM Tris-HCl was repeated twice. The final pellet was resuspended in 2 volumes of 50 mM tris HCl (pH 7.4). The homogenate was assayed for protein content according to the method of Itzhaki and Gill (R. F. Itzhaki and D. M. Gill. A Micro-Biuret Method for Estimating Proteins. Anal. Biochem. 9, 401-410 (1964)).
The binding of the test compounds to the receptor membrane preparation was measured using a modification of the method of Pert and Snyder (C. B. Pert and S. H. Synder. Properties of Opiate-Receptor Binding in Rat Brain. Proc. Natl. Acad. Sci. 70, 2243-2247 (1973)). The receptor assay was run using final concentrations of 1 nM ^3 H-Naloxone and of tissue homogenate (0.5 mg/ml of homogenate protein. Levorphanol (1×10^-5 M) was used as the displacer for non-specific binding. Final concentration of the test compounds was 10^-5 M. The assay was run in 0.05M tris HCl (pH 7.4). Total assay volume was 1.0 ml.
Samples were incubated at 25° C. for 60 min., filtered over Whatman GF/C glass fiber filters, and rinsed twice with 4 ml washes of ice-cold buffer. The filters were air-dried at 50° C. for 30 min. After drying 10 mls of PCS was added to the vial and the radioactivity determined using a Tracor Analytic Mark III liquid scintillation counter with a counting efficiency of 48%.
The IC50 values, the concentration of the test compounds which inhibited ^3 H-Naloxone specific binding to the opiate receptor by 50%, were obtained from log-logit plots of concentration-response curves.

[2] = test system: phenylbenzoquinone-induced writhing in mice; test: Writhing assay (phenylbenzoquinone-induced writhing); assay type: in vivo, mouse; settings: 30 min before phenylbenzoquinone i.p., active = writhes significantly less than saline group; for Writhing Mouse Oral: screening dose 10 mg/kg oral (intragastric); for Writhing Mouse Subc.: screening dose 10 mg/kg subcutaneous
Procedure: Writhing assay. Male Charles River albino mice (CD-1/HAM/1LR) weighing between 20 and 30 grams were used. Thirty minutes after subcutaneous or intragastric administration of the test compound (0.1 ml/10 gram body weight), 0.025% (w/v) phenylbenzoquinone was injected intraperitoneally (0.1 ml/10 gram body weight). Five minutes later, each mouse was placed in a large glass beaker and the number of writhes that occurred in the subsequent ten minutes is counted. A writhe consisted of dorsoflexion of the back, extension of the hindlimbs, and strong contraction of the abdominal musculature. The test compound was considered to have produced analgesia in a mouse if the number of writhes elicited by phenylbenzoquinone was equal to or less than one-half the median number of writhes recorded for the saline-treated group that day. The results were expressed as the number of mice (out of a possible ten) in which the test compound produced analgesia. […] If the initial test dose of 10 mg/kg inhibited writhing in greater than 6 of 10 mice, the effect of additional doses was evaluated and an ED50 value was calculated using a maximum likelihood function.

[3] = test system: brain opiate receptor sites; settings: partially purified brain opiate receptor sites; Bradberry et al. 1976; cited from earlier work
[4] = test system: rat; settings: injected directly into the brain of the rat; Belluzi et al. 1976; cited from earlier work

Row | Compound | IC50 [1] [µM] | Writhing Mouse Oral [2] | Writhing Mouse Subc. [2] | binding to brain opiate receptor sites [3] | analgesic activity [4]
1 | 2,6-dimethyl-D-tyrosyl-N-(3-phenylpropyl)-D-methioninamide, monohydrochloride [Example 15] | 0.16 | Inactive | Inactive |  | 
2 | methionine enkephalin |  |  |  | binds stereospecifically | weak, fleeting analgesic activity
3 | L-tyrosyl-γ-(methylsulfonyl)-N-(3-phenylpropyl)-DL-α-aminobutanamide, monohydrochloride [Example 8] | 0.0096 | Inactive | Inactive |  | 
4 | Cc1cc(O)cc(C)c1C[C@@H](N)C(=O)N[C@H](CC[S+](C)[O-])C(=O)NCCCc1ccccc1.Cl (stereo partly drawn) [Example 17, 2,6-dimethyl-D-tyrosyl-γ-(methylsulfinyl)-N-(3-phenylpropyl)-D-α-aminobutanamide, monohydrochloride] | 0.096 | Inactive | Inactive |  | 
5 | 2,6-dimethyl-L-tyrosyl-N-(3-phenylpropyl)-D-methioninamide, monohydrochloride [Example 14] | 0.0002 | Active | Active |  | 
6 | L-tyrosyl-N-(3-phenylpropyl)-D-methioninamide, monohydrochloride [Example 4] | 0.016 | Inactive | Inactive |  | 
7 | 2,6-dimethyl-L-tyrosyl-α-(methylsulfinyl)-N-(3-phenylpropyl)-D-α-aminobutanamide, monohydrochloride [Example 16] | 0.0004 | Active | Active |  | 
